Tests used:
ORYSAT (Rice, Tebonnet) [1] = assay: Postemergence herbicidal evaluation; assay type: in vivo, Oryza sativa, (L.) Tebonnet
How it was run: (§1)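 Visual 0–9 injury scores versus control plants, covering stand, vigour, malformation, size, chlorosis and general appearance, taken four to five weeks post-spray and averaged over replicate tests. Plants were sprayed at roughly two weeks old and held on greenhouse benches.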

ZEAMX (Corn, Field) = assay: Postemergence herbicidal evaluation; assay type: in vivo, Zea mays, L.
How it was run: as §1

[2] = test system: ABUTH (Abutilon theophrasti); assay: Preemergence herbicidal evaluation; assay type: in vivo, Medic.; conditions: rated 4-5 weeks after treatment
[3] = test system: SAGPY (Sagittaria pygmaea); assay: Flooded paddy, preemergence weed control; assay type: in vivo, L.; conditions: rated 3-4 weeks after treatment, 0-9 rating scale
How it was run: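 Ratings of 0-9 reflect visual comparison with a control for stand, vigor, deformity, size, chlorosis and overall look. Propagules were placed in shallow silt loam (top 0.5 cm) under a continuous 1.5–3 cm flood and grown in the greenhouse.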

[4] = test system: TRZAWR (Wheat, Winter, cv Riband); assay: Preemergence herbicidal evaluation; assay type: in vivo, Triticum aestivum; conditions: rated 4-5 weeks after treatment
How it was run: (§2)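 Rating 0–9, visual, vs control; 4–5 wk after spraying seeded cups with compound in aq. acetone; conventional greenhouse care.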

GALAP (Galium aparine) [5] = assay: Preemergence herbicidal evaluation; assay type: in vivo; conditions: rated 4-5 weeks after treatment
How it was run: as §2

[6] = test system: ABUTH (Abutilon theophrasti); assay: Postemergence herbicidal evaluation; assay type: in vivo, Medic.
How it was run: as §1

ORYSAT (Rice, Tebonnet) [7] = assay: Flooded paddy, post-transplant rice tolerance; assay type: in vivo, Oryza sativa, (L.) Tebonnet; conditions: flooded paddy, post-transplant rice, rated 3-4 weeks after treatment, 0-9 rating scale
How it was run: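 Scores (0-9) reflect visual injury relative to untreated plants in flooded silt loam. Each pot held two transplanted ten-day-old seedlings under 1.5 to 3 cm standing water in the greenhouse.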

ORYSAT (Rice, Tebonnet) [8] = assay: Preemergence herbicidal evaluation; assay type: in vivo, Oryza sativa, (L.) Tebonnet; conditions: rated 4-5 weeks after treatment
[9] = test system: CHEAL (Chenopodium album); assay: Preemergence herbicidal evaluation; assay type: in vivo, L.; conditions: rated 4-5 weeks after treatment
How it was run: as §2

[10] = test system: CASOB (Cassia obtusifolia); assay: Preemergence herbicidal evaluation; assay type: in vivo, L.; conditions: rated 4-5 weeks after treatment
How it was run: as §2

[11] = test system: AMBEL (Ambrosia artemisifolia); assay: Preemergence herbicidal evaluation; assay type: in vivo, L.; conditions: rated 4-5 weeks after treatment
How it was run: as §2

[12] = test system: CHEAL (Chenopodium album); assay: Postemergence herbicidal evaluation; assay type: in vivo, L.
How it was run: as §1

[13] = test system: CASOB (Cassia obtusifolia); assay: Postemergence herbicidal evaluation; assay type: in vivo, L.
How it was run: as §1

[14] = test system: AMBEL (Ambrosia artemisifolia); assay: Postemergence herbicidal evaluation; assay type: in vivo, L.
How it was run: as §1

[15] = test system: GLXMAW (Soybean, Williams); assay: Postemergence herbicidal evaluation; assay type: in vivo, Glycine max, (L.) Merr. cv Williams
How it was run: as §1

[16] = test system: CYPSE (Cyperus serotinus); assay: Flooded paddy, preemergence weed control; assay type: in vivo, Rottb.; conditions: rated 3-4 weeks after treatment, 0-9 rating scale
How it was run: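 Seeds or propagules were planted 0.5 cm deep in silt loam and flooded to 1.5–3 cm. Compounds in 50/50 v/v aqueous/acetone were pipetted into the flood water at about 0.0080 to 0.1250 kg/ha. After 3–4 weeks in the greenhouse, effect was rated visually on a 0–9 scale versus untreated control.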

[17] = test system: IPOHE (Ipomoea hederacea); assay: Preemergence herbicidal evaluation; assay type: in vivo, (L.) Jacq.; conditions: rated 4-5 weeks after treatment
GALAP (Galium aparine) [18] = assay: Postemergence herbicidal evaluation; assay type: in vivo
How it was run: as §1

[19] = test system: ECHCG (Echinochloa crus-galli); assay: Postemergence herbicidal evaluation; assay type: in vivo, (L.) Beau
How it was run: as §1

Structure (SMILES): Cc1cc(C)nc(-c2nsc3ccc(-n4c(=O)cc(C(F)(F)F)n(C)c4=O)cc23)n1 [Compound 40, 3-[3-(4,6-dimethyl-2-pyrimidinyl)-1,2-benzisothiazol-5-yl]-1-methyl-6-(trifluoromethyl)uracil]
- Postemergence herbicidal rating, ORYSAT (ORYSAT (Rice, Tebonnet) [1]; rate 0.0320 kg/ha): 2.0
- Postemergence herbicidal rating, ORYSAT (ORYSAT (Rice, Tebonnet) [1]; rate 0.0620 kg/ha): 2.0
- Postemergence herbicidal rating, ZEAMX (ZEAMX (Corn, Field); rate 0.0320 kg/ha): 4.5
- Postemergence herbicidal rating, ZEAMX (ZEAMX (Corn, Field); rate 0.0620 kg/ha): 5.0
- Preemergence herbicidal rating ABUTH ([2]; Rate 0.0620 kg/ha): 9.0
- Preemergence herbicidal rating ABUTH ([2]; Rate 0.1250 kg/ha): 9.0
- Preemergence herbicidal rating ABUTH ([2]; Rate 0.2500 kg/ha): 9.0
- herbicidal rating, SAGPY ([3]; rate 0.0320 kg/ha): 0.0
- herbicidal rating, SAGPY ([3]; rate 0.1250 kg/ha): 5.0
- Preemergence herbicidal rating TRZAWR ([4]; Rate 0.0620 kg/ha): 1.0
- Preemergence herbicidal rating TRZAWR ([4]; Rate 0.1250 kg/ha): 5.0
- Preemergence herbicidal rating TRZAWR ([4]; Rate 0.2500 kg/ha): 9.0
- Preemergence herbicidal rating GALAP (GALAP (Galium aparine) [5]; Rate 0.0620 kg/ha): 0.0
- Preemergence herbicidal rating GALAP (GALAP (Galium aparine) [5]; Rate 0.1250 kg/ha): 0.0
- Preemergence herbicidal rating GALAP (GALAP (Galium aparine) [5]; Rate 0.2500 kg/ha): 8.0
- Postemergence herbicidal rating, ABUTH ([6]; rate 0.0320 kg/ha): 9.0
- Postemergence herbicidal rating, ABUTH ([6]; rate 0.0620 kg/ha): 9.0
- herbicidal rating, ORYSAT (rice tolerance) (ORYSAT (Rice, Tebonnet) [7]; rate 0.0320 kg/ha): 5.0
- herbicidal rating, ORYSAT (rice tolerance) (ORYSAT (Rice, Tebonnet) [7]; rate 0.1250 kg/ha): 7.0
- Preemergence herbicidal rating ORYSAT (ORYSAT (Rice, Tebonnet) [8]; Rate 0.0620 kg/ha): 1.0
- Preemergence herbicidal rating ORYSAT (ORYSAT (Rice, Tebonnet) [8]; Rate 0.1250 kg/ha): 2.0
- Preemergence herbicidal rating ORYSAT (ORYSAT (Rice, Tebonnet) [8]; Rate 0.2500 kg/ha): 4.0
- Preemergence herbicidal rating CHEAL ([9]; Rate 0.0620 kg/ha): 9.0
- Preemergence herbicidal rating CHEAL ([9]; Rate 0.1250 kg/ha): 9.0
- Preemergence herbicidal rating CHEAL ([9]; Rate 0.2500 kg/ha): 9.0
- Preemergence herbicidal rating CASOB ([10]; Rate 0.0620 kg/ha): 1.0
- Preemergence herbicidal rating CASOB ([10]; Rate 0.1250 kg/ha): 2.0
- Preemergence herbicidal rating CASOB ([10]; Rate 0.2500 kg/ha): 5.0
- Preemergence herbicidal rating AMBEL ([11]; Rate 0.0620 kg/ha): 3.0
- Preemergence herbicidal rating AMBEL ([11]; Rate 0.1250 kg/ha): 5.0
- Preemergence herbicidal rating AMBEL ([11]; Rate 0.2500 kg/ha): 9.0
- Postemergence herbicidal rating, CHEAL ([12]; rate 0.0320 kg/ha): 4.0
- Postemergence herbicidal rating, CHEAL ([12]; rate 0.0620 kg/ha): 6.0
- Postemergence herbicidal rating, CASOB ([13]; rate 0.0320 kg/ha): 1.0
- Postemergence herbicidal rating, CASOB ([13]; rate 0.0620 kg/ha): 6.0
- Postemergence herbicidal rating, AMBEL ([14]; rate 0.0320 kg/ha): 9.0
- Postemergence herbicidal rating, AMBEL ([14]; rate 0.0620 kg/ha): 9.0
- Postemergence herbicidal rating, GLXMAW ([15]; rate 0.0320 kg/ha): 7.0
- Postemergence herbicidal rating, GLXMAW ([15]; rate 0.0620 kg/ha): 8.0
- herbicidal rating, CYPSE ([16]; rate 0.0320 kg/ha): 0.0
- herbicidal rating, CYPSE ([16]; rate 0.1250 kg/ha): 0.0
- Preemergence herbicidal rating IPOHE ([17]; Rate 0.0620 kg/ha): 2.0
- Preemergence herbicidal rating IPOHE ([17]; Rate 0.1250 kg/ha): 7.0
- Preemergence herbicidal rating IPOHE ([17]; Rate 0.2500 kg/ha): 9.0
- Postemergence herbicidal rating, GALAP (GALAP (Galium aparine) [18]; rate 0.0320 kg/ha): 2.0
- Postemergence herbicidal rating, GALAP (GALAP (Galium aparine) [18]; rate 0.0620 kg/ha): 2.0
- Postemergence herbicidal rating, ECHCG ([19]; rate 0.0320 kg/ha): 0.0
- Postemergence herbicidal rating, ECHCG ([19]; rate 0.0620 kg/ha): 1.0
